What all share (test): Z'-LYTE kinase panel
What all share (type): biochemical

In assay [1] the target is T1, AURKC (Aurora C) (Homo sapiens, UniProt Q9UQB9).
T1 construct: purchased ThermoFisher (SelectScreen, Z'-LYTE)
T1 sequence (Q9UQB9 1-309): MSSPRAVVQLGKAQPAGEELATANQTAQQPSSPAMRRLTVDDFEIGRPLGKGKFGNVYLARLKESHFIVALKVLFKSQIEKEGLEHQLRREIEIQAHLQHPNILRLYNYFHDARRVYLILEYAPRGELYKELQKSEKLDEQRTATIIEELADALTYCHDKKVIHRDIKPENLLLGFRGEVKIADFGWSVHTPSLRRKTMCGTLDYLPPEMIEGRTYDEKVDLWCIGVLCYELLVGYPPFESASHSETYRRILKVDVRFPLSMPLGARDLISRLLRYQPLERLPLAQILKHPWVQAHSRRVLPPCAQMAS
The essentials:
(§1)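 Readout is percentage inhibition, obtained from the standard Z′-LYTE protocol with test compound present at 10 µM; screened within a panel of 225 kinases.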

Assay [2] has as its target T2, CAMK2D (CaMKII delta) (Homo sapiens, UniProt Q13557).
T2 construct: purchased ThermoFisher (SelectScreen, Z'-LYTE)
The essentials:
as §1

Assay [3] concerns the target T3, MAPK10 (JNK3) (Homo sapiens, UniProt P53779).
T3 construct: purchased ThermoFisher (SelectScreen, Z'-LYTE)
To be noted: 10 µM compound; ATP 100. The essentials: as §1

Assay [4] addresses T4, TBK1 (Homo sapiens, UniProt Q9UHD2).
T4 construct: purchased ThermoFisher (SelectScreen, Z'-LYTE)
T4 sequence (Q9UHD2 1-729): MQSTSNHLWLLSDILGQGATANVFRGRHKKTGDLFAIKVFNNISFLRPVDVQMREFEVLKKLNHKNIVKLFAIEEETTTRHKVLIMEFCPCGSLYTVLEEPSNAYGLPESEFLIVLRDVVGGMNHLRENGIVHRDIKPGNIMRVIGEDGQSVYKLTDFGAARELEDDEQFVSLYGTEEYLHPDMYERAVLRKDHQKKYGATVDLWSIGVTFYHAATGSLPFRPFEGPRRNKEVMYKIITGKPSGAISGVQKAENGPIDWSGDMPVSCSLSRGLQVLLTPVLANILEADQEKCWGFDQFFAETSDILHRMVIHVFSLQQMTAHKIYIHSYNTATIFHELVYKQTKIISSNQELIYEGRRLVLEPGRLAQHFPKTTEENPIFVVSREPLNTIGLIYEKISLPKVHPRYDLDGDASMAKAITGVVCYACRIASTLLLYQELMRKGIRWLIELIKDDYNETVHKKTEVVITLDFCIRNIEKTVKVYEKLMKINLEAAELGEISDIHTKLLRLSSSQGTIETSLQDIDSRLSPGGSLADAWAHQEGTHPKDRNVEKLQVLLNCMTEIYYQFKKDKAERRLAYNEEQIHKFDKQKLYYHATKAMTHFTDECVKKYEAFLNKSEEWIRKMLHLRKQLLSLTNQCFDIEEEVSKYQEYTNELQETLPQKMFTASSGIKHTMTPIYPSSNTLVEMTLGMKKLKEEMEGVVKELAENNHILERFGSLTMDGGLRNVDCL
The essentials:
as §1

The target in assay [5] is T5, YES1 (Homo sapiens, UniProt P07947).
T5 construct: purchased ThermoFisher (SelectScreen, Z'-LYTE)
The essentials:
as §1

Assay [6] concerns the target T6, PRKCB1 (PKC beta I) (Homo sapiens, UniProt P05771).
T6 construct: purchased ThermoFisher (SelectScreen, Z'-LYTE)
In outline:
as §1

The target of assay [7] is T7, ROCK1 (Homo sapiens, UniProt Q13464).
T7 construct: purchased ThermoFisher (SelectScreen, Z'-LYTE)
In outline:
as §1

The target in assay [8] is T8, ABL2 (Arg) (Homo sapiens, UniProt P42684).
T8 construct: purchased ThermoFisher (SelectScreen, Z'-LYTE)
In outline: as §1

The target of assay [9] is T9, EEF2K (Homo sapiens, UniProt O00418).
T9 construct: purchased ThermoFisher (SelectScreen, Z'-LYTE)
The essentials: as §1

The target in assay [10] is T10, SRPK1 (Homo sapiens, UniProt Q96SB4).
T10 construct: purchased ThermoFisher (SelectScreen, Z'-LYTE)
In outline: as §1

The target in assay [11] is T11, PRKG1 (Homo sapiens, UniProt Q13976).
T11 construct: purchased ThermoFisher (SelectScreen, Z'-LYTE)
T11 sequence (Q13976 1-671): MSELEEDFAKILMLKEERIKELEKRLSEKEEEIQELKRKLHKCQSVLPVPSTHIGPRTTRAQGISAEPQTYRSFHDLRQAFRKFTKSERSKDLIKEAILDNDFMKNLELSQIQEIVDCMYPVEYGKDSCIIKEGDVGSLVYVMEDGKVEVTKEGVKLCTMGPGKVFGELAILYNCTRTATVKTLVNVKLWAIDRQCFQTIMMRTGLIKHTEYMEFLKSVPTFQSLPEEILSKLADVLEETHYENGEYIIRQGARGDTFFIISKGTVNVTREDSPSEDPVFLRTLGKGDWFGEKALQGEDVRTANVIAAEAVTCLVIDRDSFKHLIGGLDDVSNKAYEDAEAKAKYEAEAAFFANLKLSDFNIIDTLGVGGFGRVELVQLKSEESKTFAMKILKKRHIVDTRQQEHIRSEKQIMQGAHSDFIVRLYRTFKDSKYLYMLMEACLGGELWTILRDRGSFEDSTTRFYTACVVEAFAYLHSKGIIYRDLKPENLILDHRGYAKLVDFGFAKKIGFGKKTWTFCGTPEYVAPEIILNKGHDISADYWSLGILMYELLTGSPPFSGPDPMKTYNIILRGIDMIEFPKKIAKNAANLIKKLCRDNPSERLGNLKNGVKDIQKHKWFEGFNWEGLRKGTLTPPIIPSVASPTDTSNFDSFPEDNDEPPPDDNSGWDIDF
The essentials: as §1

For assay [12], the target named is T12, CSNK1A1 (CK1 alpha 1) (Homo sapiens, UniProt P48729).
T12 construct: purchased ThermoFisher (SelectScreen, Z'-LYTE)
In outline: as §1

Assay [13] has as its target T13, EGFR (ErbB1) (Homo sapiens, UniProt P00533).
T13 construct: purchased ThermoFisher (SelectScreen, Z'-LYTE)
In outline:
as §1

The target of assay [14] is T14, MAPK1 (ERK2) (Homo sapiens, UniProt P28482).
T14 construct: purchased ThermoFisher (SelectScreen, Z'-LYTE)
In outline: as §1

The target in assay [15] is T15, NTRK1 (TRKA) (Homo sapiens, UniProt P04629).
T15 construct: purchased ThermoFisher (SelectScreen, Z'-LYTE)
In outline:
as §1

Assay [16] deals with T16, PASK (Homo sapiens, UniProt Q96RG2).
T16 construct: purchased ThermoFisher (SelectScreen, Z'-LYTE)
The essentials:
as §1

Assay [17] deals with T17, INSR (Homo sapiens, UniProt P06213).
T17 construct: purchased ThermoFisher (SelectScreen, Z'-LYTE)
The essentials: as §1

The target of assay [18] is T18, CLK3 (Homo sapiens, UniProt P49761).
T18 construct: purchased ThermoFisher (SelectScreen, Z'-LYTE)
The essentials:
as §1

In assay [19] the target is T19, FGR (Homo sapiens, UniProt P09769).
T19 construct: purchased ThermoFisher (SelectScreen, Z'-LYTE)
The essentials:
as §1

For orientation: inhibition means the change of the read-out against control, counted positive when it falls.

T14 sequence (P28482 whole entry): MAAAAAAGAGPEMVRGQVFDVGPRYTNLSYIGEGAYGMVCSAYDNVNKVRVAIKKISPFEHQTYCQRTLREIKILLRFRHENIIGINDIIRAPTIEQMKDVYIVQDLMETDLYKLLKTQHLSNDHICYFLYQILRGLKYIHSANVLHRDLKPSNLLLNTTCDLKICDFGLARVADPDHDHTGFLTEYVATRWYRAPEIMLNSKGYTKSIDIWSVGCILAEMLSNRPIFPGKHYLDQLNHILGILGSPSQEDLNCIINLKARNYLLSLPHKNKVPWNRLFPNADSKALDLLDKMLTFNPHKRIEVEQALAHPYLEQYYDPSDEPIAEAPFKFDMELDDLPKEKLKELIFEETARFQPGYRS
T7 sequence (Q13464 whole entry): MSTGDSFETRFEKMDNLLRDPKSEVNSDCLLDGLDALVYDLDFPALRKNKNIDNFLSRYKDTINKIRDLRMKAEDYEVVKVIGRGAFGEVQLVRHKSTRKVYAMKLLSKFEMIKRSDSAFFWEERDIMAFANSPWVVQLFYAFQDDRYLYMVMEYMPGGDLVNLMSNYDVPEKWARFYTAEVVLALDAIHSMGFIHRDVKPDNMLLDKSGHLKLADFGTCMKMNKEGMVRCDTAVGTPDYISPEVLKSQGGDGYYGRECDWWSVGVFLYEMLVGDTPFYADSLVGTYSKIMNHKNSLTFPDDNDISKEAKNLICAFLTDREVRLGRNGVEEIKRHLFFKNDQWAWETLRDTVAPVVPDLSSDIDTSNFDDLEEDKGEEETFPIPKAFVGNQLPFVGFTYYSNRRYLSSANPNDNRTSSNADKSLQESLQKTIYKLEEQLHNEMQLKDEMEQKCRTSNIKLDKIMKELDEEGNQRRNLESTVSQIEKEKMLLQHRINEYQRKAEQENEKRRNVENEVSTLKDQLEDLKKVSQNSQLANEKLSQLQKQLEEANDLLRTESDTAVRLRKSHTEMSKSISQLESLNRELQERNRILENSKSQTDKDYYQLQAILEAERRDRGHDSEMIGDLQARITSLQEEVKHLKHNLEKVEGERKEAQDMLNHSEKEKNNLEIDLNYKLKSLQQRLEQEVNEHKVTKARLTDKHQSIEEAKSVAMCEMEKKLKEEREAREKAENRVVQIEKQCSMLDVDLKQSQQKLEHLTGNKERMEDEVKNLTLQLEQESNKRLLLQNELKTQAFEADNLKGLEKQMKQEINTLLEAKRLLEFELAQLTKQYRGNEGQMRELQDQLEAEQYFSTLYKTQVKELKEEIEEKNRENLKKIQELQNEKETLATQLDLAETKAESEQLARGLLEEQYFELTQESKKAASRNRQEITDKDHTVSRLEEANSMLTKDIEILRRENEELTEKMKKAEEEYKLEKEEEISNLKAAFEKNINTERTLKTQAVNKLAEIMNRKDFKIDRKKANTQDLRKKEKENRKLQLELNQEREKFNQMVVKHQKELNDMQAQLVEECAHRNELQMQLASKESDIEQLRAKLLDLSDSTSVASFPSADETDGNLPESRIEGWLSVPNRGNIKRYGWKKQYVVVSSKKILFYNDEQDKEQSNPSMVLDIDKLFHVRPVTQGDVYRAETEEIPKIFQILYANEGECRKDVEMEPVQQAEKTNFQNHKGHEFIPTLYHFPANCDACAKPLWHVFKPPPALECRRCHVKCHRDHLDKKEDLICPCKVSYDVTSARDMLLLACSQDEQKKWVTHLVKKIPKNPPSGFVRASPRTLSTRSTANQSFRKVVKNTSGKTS
T16 sequence (Q96RG2 whole entry): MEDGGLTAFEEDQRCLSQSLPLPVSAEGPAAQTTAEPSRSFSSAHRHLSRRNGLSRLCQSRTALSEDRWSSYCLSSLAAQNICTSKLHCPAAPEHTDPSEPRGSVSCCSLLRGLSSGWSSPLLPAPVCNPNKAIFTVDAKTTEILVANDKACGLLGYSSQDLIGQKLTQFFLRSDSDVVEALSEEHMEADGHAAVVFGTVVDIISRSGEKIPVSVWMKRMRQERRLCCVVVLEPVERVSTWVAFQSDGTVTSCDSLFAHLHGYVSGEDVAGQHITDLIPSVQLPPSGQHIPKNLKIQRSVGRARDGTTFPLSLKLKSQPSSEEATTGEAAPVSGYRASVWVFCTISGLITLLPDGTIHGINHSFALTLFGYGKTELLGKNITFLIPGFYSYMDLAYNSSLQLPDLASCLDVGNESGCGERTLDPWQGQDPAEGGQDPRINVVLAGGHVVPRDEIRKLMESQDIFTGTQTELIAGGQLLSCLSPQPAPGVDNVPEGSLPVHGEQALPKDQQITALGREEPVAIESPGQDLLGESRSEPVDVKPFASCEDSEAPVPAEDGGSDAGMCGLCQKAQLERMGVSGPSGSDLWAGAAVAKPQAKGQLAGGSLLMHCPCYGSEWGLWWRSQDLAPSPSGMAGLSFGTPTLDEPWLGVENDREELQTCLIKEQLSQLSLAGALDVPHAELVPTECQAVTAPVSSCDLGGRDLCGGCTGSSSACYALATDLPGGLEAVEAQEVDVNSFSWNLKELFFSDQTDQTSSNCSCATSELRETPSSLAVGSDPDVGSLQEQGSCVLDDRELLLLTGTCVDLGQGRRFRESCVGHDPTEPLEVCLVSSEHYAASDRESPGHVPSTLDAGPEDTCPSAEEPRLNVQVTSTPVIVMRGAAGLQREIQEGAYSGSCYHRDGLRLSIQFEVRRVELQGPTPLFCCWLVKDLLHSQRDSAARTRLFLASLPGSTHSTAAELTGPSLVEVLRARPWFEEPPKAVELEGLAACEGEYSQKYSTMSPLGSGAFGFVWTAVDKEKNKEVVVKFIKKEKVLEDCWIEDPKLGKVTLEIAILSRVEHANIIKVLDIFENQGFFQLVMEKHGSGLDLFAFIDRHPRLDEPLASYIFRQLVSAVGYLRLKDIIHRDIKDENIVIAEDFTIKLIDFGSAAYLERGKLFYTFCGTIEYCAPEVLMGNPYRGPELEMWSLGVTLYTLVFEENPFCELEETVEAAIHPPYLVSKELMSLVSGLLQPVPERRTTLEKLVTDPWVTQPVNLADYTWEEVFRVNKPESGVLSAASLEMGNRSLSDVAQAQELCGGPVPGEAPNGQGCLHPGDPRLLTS
T18 sequence (P49761 whole entry): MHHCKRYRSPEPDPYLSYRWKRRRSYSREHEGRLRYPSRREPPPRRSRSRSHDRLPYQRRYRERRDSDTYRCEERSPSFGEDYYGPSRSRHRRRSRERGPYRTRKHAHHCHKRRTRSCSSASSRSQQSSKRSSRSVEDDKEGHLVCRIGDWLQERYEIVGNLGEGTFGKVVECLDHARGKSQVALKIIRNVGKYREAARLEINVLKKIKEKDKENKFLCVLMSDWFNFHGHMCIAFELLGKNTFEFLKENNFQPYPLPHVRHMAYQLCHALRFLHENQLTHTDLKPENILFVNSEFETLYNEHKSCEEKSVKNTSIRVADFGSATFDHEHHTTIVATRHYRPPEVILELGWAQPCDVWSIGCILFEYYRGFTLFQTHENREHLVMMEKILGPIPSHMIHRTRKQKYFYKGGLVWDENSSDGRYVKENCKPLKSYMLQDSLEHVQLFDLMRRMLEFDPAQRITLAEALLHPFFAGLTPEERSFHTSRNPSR
T17 sequence (P06213 28-1382): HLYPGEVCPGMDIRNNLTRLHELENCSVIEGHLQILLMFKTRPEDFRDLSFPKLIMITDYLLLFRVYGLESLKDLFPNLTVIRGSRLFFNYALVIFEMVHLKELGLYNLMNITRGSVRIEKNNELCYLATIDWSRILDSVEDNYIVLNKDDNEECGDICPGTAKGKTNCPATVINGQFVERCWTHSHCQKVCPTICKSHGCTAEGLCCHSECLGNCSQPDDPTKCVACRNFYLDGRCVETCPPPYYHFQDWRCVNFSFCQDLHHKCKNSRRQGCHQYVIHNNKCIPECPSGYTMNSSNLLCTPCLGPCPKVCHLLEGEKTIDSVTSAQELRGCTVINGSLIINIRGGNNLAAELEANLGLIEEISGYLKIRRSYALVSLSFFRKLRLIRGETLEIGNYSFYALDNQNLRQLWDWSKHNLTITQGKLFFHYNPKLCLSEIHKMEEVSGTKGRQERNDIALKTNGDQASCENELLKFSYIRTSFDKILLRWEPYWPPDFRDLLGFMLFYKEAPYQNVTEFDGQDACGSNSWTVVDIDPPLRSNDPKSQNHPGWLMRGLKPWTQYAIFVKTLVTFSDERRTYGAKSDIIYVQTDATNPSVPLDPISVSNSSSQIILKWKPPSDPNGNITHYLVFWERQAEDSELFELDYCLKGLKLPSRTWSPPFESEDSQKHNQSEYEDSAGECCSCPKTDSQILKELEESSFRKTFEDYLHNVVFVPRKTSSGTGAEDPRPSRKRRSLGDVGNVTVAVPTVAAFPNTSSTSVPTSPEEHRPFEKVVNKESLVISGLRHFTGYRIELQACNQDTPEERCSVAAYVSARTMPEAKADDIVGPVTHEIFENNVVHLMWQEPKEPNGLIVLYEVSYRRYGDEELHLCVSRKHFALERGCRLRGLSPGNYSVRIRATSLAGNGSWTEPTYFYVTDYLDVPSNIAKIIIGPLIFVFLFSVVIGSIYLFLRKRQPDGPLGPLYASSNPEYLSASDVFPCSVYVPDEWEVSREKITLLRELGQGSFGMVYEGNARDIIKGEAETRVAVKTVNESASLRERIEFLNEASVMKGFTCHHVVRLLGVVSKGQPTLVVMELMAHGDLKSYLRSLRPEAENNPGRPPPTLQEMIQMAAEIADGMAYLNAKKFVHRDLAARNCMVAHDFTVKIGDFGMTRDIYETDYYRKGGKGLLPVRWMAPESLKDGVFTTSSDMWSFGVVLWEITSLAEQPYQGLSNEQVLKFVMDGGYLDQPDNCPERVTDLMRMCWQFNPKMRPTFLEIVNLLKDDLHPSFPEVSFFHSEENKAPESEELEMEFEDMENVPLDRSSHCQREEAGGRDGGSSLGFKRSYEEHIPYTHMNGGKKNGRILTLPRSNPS

As for `Cc1ncc(-c2nc(Nc3ccc(C(=O)NCCN4CCCCC4)cc3)ncc2F)n1C(C)C` [Compound 3], the inhibition at 10 µM amounted to 89% in assay [1]; 88% in [2]; 77% in [3]; 86% in assay [4]; 85% in assay [5]; 86% in [6]. The inhibition at 10 µM in [7] came to 27%; in assay [8], 75%; in [9], 1.51%; in [10], 24%; in [11], 80%; in assay [12] it was 28%. The inhibition at 10 µM in [13] amounted to 13%; in assay [14], 39%; in assay [15], 76%; in [16], 30%; in [17] it was 69%; in assay [18], 71%. The inhibition at 10 µM in [19] turned out to be 90%.

In the case of `Cc1cc(Nc2nc(N)nn2C(=O)NC(C)C)ccc1Cl` [Compound 5], the inhibition at 10 µM was 54% in assay [1]; -2.38% in assay [2]; 2.76% in [3]; 27% in [4]; 46% in assay [5]; 2.25% in assay [6]. For the same compound, the inhibition at 10 µM is 37% in [7]; 52% in assay [8]; -5.55% in [9]; 2% in assay [10]; -4% in assay [11]; 4% in [12]. The inhibition at 10 µM in assay [13] worked out at 1%; in [14] it was 6%; in [15] it was 36%; in [16], 1.44%; in [17], 5.44%; in assay [18], 12%. For the same compound, in assay [19], the inhibition at 10 µM came out at 54%.

Consider “XMD8-92 [Compound 2, reference compound]”, for which the “AURKC (Aurora C) % Inhibition” value in assay [1] (10 µM compound, ATP Km app) stood at 34%. Also, the “CAMK2D (CaMKII delta) % Inhibition” value in assay [2] (10 µM compound, ATP Km app) was found to be 63%. In addition, the “MAPK10 (JNK3) % Inhibition” value in assay [3] stood at 9%. Besides, the “TBK1 % Inhibition” value in assay [4] (10 µM compound, ATP Km app) came to 43%. Also, in assay [5] (10 µM compound, ATP Km app), the “YES1 % Inhibition” value came to 41%. The “PRKCB1 (PKC beta I) % Inhibition” value in assay [6] (10 µM compound, ATP Km app) is 13%. The “ROCK1 % Inhibition” value in assay [7] (10 µM compound, ATP Km app) is 16%. The “ABL2 (Arg) % Inhibition” value in assay [8] (10 µM compound, ATP Km app) came to 21%. For the same compound, the “EEF2K % Inhibition” value in assay [9] (10 µM compound, ATP Km app) is recorded as -6%. The “SRPK1 % Inhibition” value in assay [10] (10 µM compound, ATP Km app) was -3%. For the same compound, the “PRKG1 % Inhibition” value in assay [11] (10 µM compound, ATP Km app) is on record as 10%. For the same compound, the “CSNK1A1 (CK1 alpha 1) % Inhibition” value in assay [12] (10 µM compound, ATP Km app) came out at 7%. In [13] (10 µM compound, ATP Km app), the “EGFR (ErbB1) % Inhibition” value is recorded as -11%. Besides, in [14] (10 µM compound, ATP Km app), the “MAPK1 (ERK2) % Inhibition” value was determined as 9%. The “NTRK1 (TRKA) % Inhibition” value in assay [15] (10 µM compound, ATP Km app) is given as 43%. Besides, the “PASK % Inhibition” value in assay [16] (10 µM compound, ATP Km app) is reported as 49%. In addition, the “INSR % Inhibition” value in assay [17] (10 µM compound, ATP Km app) is 4%. The “CLK3 % Inhibition” value in assay [18] (10 µM compound, ATP Km app) stood at 5.55%. In addition, the “FGR % Inhibition” value in assay [19] (10 µM compound, ATP Km app) is recorded as 83%.

Values taken from PMC4854315, “Discovery of a novel allosteric inhibitor-binding site in ERK5: comparison with the canonical kinase hinge ATP-binding site” (Acta Crystallographica. Section D, Structural Biology, 2016).
